Experimental data from patent US20240082398A1, “METHODS OF PREPARING AND EXPANDING TYPE I INNATE LYMPHOID CELLS AND THERAPEUTIC USES THEREOF” (City of Hope, priority 2021, published 2024).
“Also recorded” adds a separate entry of the source.

Key:
[1] = system: LS^−K^+ leukemia progenitor cells; assay: Differentiation of sorted leukemia progenitor cells into myeloid blasts; type: cell-based, mouse; settings: treated 5 days, among the groups
Protocol: The process of LSC differentiation into AML blasts includes transitions from LSCs to LS^−K^+ leukemia progenitor cells, and from LS^−K^+ leukemia progenitor cells to AML blasts. To investigate which part of the process was affected by ILC1 and IFN-γ, LS^−K^+ leukemia progenitor cells were sorted from Mll^PTD/WT/Flt3^ITD/ITD AML mice, then the LS^−K^+ leukemia progenitor cells were treated with WT ILC1, ILC1s, or recombinant IFN-γ for 5 days. […] Thus, ILC1s block LSC differentiation into AML blasts, likely via a process involving by IFN-γ, during the transition from LSCs into LS^−K^+ leukemia progenitor cells, upstream of progenitor cell differentiation into AML blasts (FIG. 9D).
LSCs transition into LS^−K^+ leukemia progenitor cells before becoming AML blasts.

[2] = system: mouse LSCs (Lin^−Sca-1^+c-Kit^+); assay: LSCs and ILC1s in vitro co-culture assay (LSC apoptosis), mouse; type: cell-based; settings: recombinant murine cytokine instead of ILC1s, indicated doses, 3-4 days
Protocol: A total of 2,000 LSCs from AML patients labeled with CTV were co-cultured with different numbers of human ILC1s supplemented with human IL-12 (10 ng/ml) and IL-15 (100 ng/ml). After 3 days of co-culture, cells were harvested and analyzed by flow cytometry. 7-AAD was used to identify dead cells. For mouse LSCs co-culture assay, 2,000 LSCs from Mll^PTD/WT/Flt3^ITD/ITD mice labeled with CTV were co-cultured with different numbers of mouse ILC1s supplemented with mouse IL-12 (10 ng/ml) and IL-15 (100 ng/ml). After 3 days of co-culture, cells were harvested and analyzed by flow cytometry. 7-AAD was used to identify the dead cells. For the co-culture of LSCs and ILC1s using the transwell co-culture system, 2,000 human or mouse LSCs were seeded in the lower chamber while different numbers of human or mouse ILC1s were seeded in the upper chamber. After 3 days, cells were harvested and analyzed by flow cytometry. 7-AAD was used to identify the dead cells. For co-culture assay with cytokines and antibodies, 2,000 human or mouse LSCs were co-cultured with different doses of human or mouse TNF-α, IFN-γ, anti-TNF-α (10 μg/ml) Ab, or anti-IFN-γ Ab (10 μg/ml). Three days after the co-culture, cells were harvested and analyzed by flow cytometry. 7-AAD was used to identify the dead cells.
For human LSC co-culture assays, LSCs from patients with AML were labeled with […] CTV and co-cultured in the presence of human IL-12 (10 ng/ml) and IL-15 (100 ng/ml) with various numbers of ILC1s isolated from peripheral blood of healthy donors or patients with AML. […] For all co-culture assays, cells were harvested after 3 days and analyzed using flow cytometry. […]
ILC1s were co-cultured with LSCs at a ratio of 1:1 or 1:2 for 6 h. […] Plates were then shaken at 300 rpm for 1 min, incubated for 60 min at room temperature, and then read on a luminometer (Promega, Glomax). Background luminescence was determined with 100 μl of culture medium without cells and subtracted before fold changes were calculated.

mouse LSCs = assay: RNA-seq of LSCs after ILC1 co-culture or IFN-γ treatment; type: cell-based; settings: vs untreated LSCs
Protocol: For mouse ILC1 RNA-sequencing, mouse ILC1s were sorted from the liver of normal mice or mice with AML using BD FACSAria™ Fusion. […] Total RNA was isolated from ILC1s or LSCs using a miRNeasy mini kit (QIAGEN). PolyA RNA-seq was performed in the Integrative Genomics Core of City of Hope National Medical Center. SMART-Seq® Ultra Low Input RNA Kit for Sequencing-v4 (Takara Bio) was used for getting double-strand cDNA from each sample with 2 ng of input total RNA. The resulting cDNA was sheared using a Covaris LE220 sonicator. The sheared DNA was used for to prepare a sequencing library, using a KAPA HyperPrep Kit. The final libraries were quantified using the Qubit Assay Kit (Thermo Fisher Scientific) and Bioanalyzer (Agilent). Sequencing was performed using the single-read mode of 51 cycles of read1 and 7 cycles of index read with V4 reagents on a Hiseq 2500 system (Illumina). Real-time analysis (RTA) 2.2.38 software was used to process the image analysis and base calling.
2,000 mouse LSCs were co-cultured with 1,000 ILC1s or treated with 1 ng/ml IFN-γ for 3 days, and then the LSCs were sorted using BD FACSAria Fusion. Total RNA of LSCs were isolated using miRNeasy mini kit (QIAGEN). SMART-Seq® Ultra Low Input RNA Kit for Sequencing-v4 was used for generating amplified double strand cDNA from each sample with 2 ng of input total RNA according to the manufacturer's protocol. The resulting double-stranded cDNA sheared with Covaris LE220 with the setting of DNA fragment size of 200 bp peak. The sheared DNA was used for sequencing library preparation by using KAPA HyperPrep Kits. The final libraries were quantified with qubit and bioanalyzer. The sequencing was performed with the single read mode of 51 cycles of read1 and 7 cycles of index read with V4 reagents on Hiseq2500. Real-time analysis (RTA) 2.2.38 software was used to process the image analysis and base calling.
Prism software v.8 (GraphPad, CA, USA) was used to perform statistical analysis. Two group comparisons were performed with a two-tailed Student's t-test; multiple group comparisons were performed with a one-way ANOVA test with a multiple comparisons option. For Kaplan-Meier survival curve analysis, the comparisons were performed using a log-rank (Mantel-Cox) test. For continuous endpoints, Student's t test was used to compare two independent conditions, and one-way ANOVA models were used to compare three or more independent conditions. For repeated measures over time, linear mixed models were used to account for the variance and covariance structure. Mouse survival was estimated by the Kaplan-Meier method and compared by log-rank tests. All tests were two-sided. P values were adjusted for multiple comparisons by Holm's procedure. For RNA-seq analysis, sequencing reads were trimmed from sequencing adapters using Trimmomatic^74 and polyA tails using FASTPT^75, and then mapped back to the mouse genome (mm10) using STAR (v. 020201)^76. The gene-level count table was created by HTSeq (v.0.6.0)^77 and normalized by the TMM^78 method. General linear models based on negative binomial distributions (R package “EdgeR”) were used to compare gene expression levels between two specific cell types. […] Pathway and gene set enrichment analyses were performed using the GSEA^79,80 program, which runs the GSEAPreranked algorithm on a ranked list of genes. Data are presented as mean±SD. Prism software v.8 (GraphPad, CA, USA) and SAS v.9.4 (SAS Institute. NC, USA) were used to perform statistical analyses. The p-values are represented as: *<0.05, **<0.01, ***<0.001, and ****<0.0001

Substance: recombinant murine IFN-γ: animal-free recombinant murine IFN-γ cytokine
- percentage of Mac-1^+ and Gr-1^+ cells from LS^−K^+ leukemia progenitor cells [1]: do not affect the differentiation of leukemia progenitor cells into myeloid blasts
- percentage of Mac-1^+ and Gr-1^+ cells from LS^−K^+ leukemia progenitor cells ([1]; listed as recombinant IFN-γ): no statistical difference; also recorded: remained constant
- LSC apoptosis on treatment with recombinant cytokine [2]: We observed LSC apoptosis with IFN-γ
- LSC apoptosis on treatment with recombinant cytokine ([2]; listed as IFN-γ): induces apoptosis of LSCs
- LSC apoptosis on treatment with recombinant cytokine ([2]; listed as Recombinant murine IFN-γ): induced LSC apoptosis
- E2F targets, G2M checkpoints, MYC targets and mitotic spindle pathways in LSCs (GSEA) (mouse LSCs): significant suppression; also recorded: significantly suppressing
- JAK-STAT and PI3K-AKT signaling pathways in LSCs (mouse LSCs): activation of the JAK-STAT and PI3K-AKT signaling pathways
- apoptotic pathways in LSCs (GSEA) (mouse LSCs): activated apoptotic pathways
- expression of Akt3, Jak2, Stat1/2, Irf1/2/7/8/9 and Socs1 in LSCs (mouse LSCs): increased expression
- expression of genes associated with lymphoid differentiation (Gimap4, Gpb4, Irf8, Irf1) (mouse LSCs): increased expression
- expression of genes associated with myeloid differentiation (S100a8/S100a9, Chil3, Serpinb1a, Slc28a2) (mouse LSCs): reduced their expression
